Patent US11819512B2, “Solid forms of a CD73 inhibitor and the use thereof” (ARCUS BIOSCIENCES, INC., priority 2018, dated 2023)

Legend:
[1] = Stability of crystalline material on storage (HPLC and XRPD); format: physicochemical; details: for purity by HPLC after storage: decrease from 99%
[2] = Hygroscopicity by dynamic vapor sorption (DVS); format: physicochemical; details: 25° C.
Protocol: A quantity of the crystalline material was analyzed by dynamic vapor sorption (DVS). The sample was subjected to a ramping profile from 40-90% RH at 10% increments, maintaining the sample at each step until a stable weight had been achieved at 25° C. After completion of the sorption cycle, the sample was dried using the same procedure to 0% RH followed by a second sorption cycle back to 40% RH. Two cycles were performed overall. The weight change during the sorption/desorption cycles were plotted, allowing for the hygroscopic nature of the sample to be determined. Significant hysteresis was observed, with the material retaining much larger quantities of water during the second sorption cycle as shown in FIG. 10. […] The amount of water in the sample at 90% relative humidity corresponds to the pentahydrate of the material.

[3] = 40° C. at 75% relative humidity (RH) for one week

- crystallinity after storage ([1]; 25° C. at 60% relative humidity (RH) for one week): no change in crystallinity
- solid form by XRPD after storage [1, 3]: conversion to the amorphous material
- purity by HPLC after storage [1, 3]: 97.3%
- morphology by XRPD after storage ([1]; 80° C. for one week): no change in morphology
- purity by HPLC after storage ([1]; 80° C. for one week): 97.4%
- hygroscopic nature ([2]; DVS): hygroscopic
- increase of water (weight) by DVS ([2]; at 90% relative humidity relative to 0% relative humidity): 13.2 % wt.
SMILES: C[C@H](Nc1cc(Cl)nc2c1cnn2[C@@H]1O[C@H](COP(=O)(O)CP(=O)(O)O)[C@@H](O)[C@H]1O)c1ccccc1F [crystalline material, [({[(2R,3S,4R,5R)-5-(6-chloro-4-{[(1S)-1-(2-fluorophenyl)ethyl]amino}-1H-pyrazolo[3,4-b]pyridin-1-yl)-3,4-dihydroxyoxolan-2-yl]methoxy}(hydroxy)phosphoryl)methyl]phosphonic Acid]
- XRPD of the sample post-DVS ([2]; after two sorption/desorption cycles, 0-90% RH): loss of crystallinity and regeneration of amorphous material
